According to ChEMBL document CHEMBL1926576, “Fragment based lead discovery of small molecule inhibitors for the EPHA4 receptor tyrosine kinase” (Eur J Med Chem, 2012):

How the values were obtained:
[1] = target: Insulin receptor-related protein (Homo sapiens) (UniProt P14616); experiment: Inhibition of IRR assessed as residual activity at 10 uM using [33P-ATP] by radiometric filter binding assay
[2] = target: RAC-alpha serine/threonine-protein kinase (Homo sapiens) (UniProt P31749); experiment: Inhibition of PKBalpha assessed as residual activity at 10 uM using [33P-ATP] by radiometric filter binding assay
Sequence of RAC-alpha serine/threonine-protein kinase (Homo sapiens) (P31749 whole entry): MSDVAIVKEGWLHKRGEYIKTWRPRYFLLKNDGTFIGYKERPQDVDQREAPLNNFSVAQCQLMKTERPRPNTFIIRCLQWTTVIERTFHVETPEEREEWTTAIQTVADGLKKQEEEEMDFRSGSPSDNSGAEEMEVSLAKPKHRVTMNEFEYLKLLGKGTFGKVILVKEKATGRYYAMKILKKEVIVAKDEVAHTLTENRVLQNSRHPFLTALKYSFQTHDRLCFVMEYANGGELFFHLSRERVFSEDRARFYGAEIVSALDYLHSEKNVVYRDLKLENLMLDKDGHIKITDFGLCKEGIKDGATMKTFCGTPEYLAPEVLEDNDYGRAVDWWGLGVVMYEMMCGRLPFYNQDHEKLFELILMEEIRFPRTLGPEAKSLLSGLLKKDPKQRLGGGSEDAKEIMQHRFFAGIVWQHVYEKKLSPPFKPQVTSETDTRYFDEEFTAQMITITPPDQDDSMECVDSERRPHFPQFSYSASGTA

[3] = target: Serine/threonine-protein kinase Nek6 (Homo sapiens) (UniProt Q9HC98); experiment: Inhibition of NEK6 assessed as residual activity at 10 uM using [33P-ATP] by radiometric filter binding assay
[4] = target: Mitogen-activated protein kinase 9 (Homo sapiens) (UniProt P45984); experiment: Inhibition of JNK2 assessed as residual activity at 10 uM using [33P-ATP] by radiometric filter binding assay
Sequence of Mitogen-activated protein kinase 9 (Homo sapiens) (P45984 whole entry, looked up): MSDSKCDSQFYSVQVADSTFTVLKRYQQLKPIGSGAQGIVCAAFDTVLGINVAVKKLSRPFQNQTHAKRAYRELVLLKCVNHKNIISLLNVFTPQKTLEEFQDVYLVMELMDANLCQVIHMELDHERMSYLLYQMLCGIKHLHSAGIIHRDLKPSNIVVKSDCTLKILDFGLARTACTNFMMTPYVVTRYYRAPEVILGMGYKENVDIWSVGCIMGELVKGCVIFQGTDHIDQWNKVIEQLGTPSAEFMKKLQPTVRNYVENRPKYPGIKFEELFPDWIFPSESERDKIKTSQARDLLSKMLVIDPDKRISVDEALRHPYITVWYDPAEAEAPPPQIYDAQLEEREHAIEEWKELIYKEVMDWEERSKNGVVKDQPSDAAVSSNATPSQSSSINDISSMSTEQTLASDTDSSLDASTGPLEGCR

[5] = target: Inhibitor of nuclear factor kappa-B kinase subunit beta (Homo sapiens) (UniProt O14920); experiment: Inhibition of IKK-beta assessed as residual activity at 10 uM using [33P-ATP] by radiometric filter binding assay
[6] = target: Mitogen-activated protein kinase kinase kinase 11 (Homo sapiens) (UniProt Q16584); experiment: Inhibition of MLK3 assessed as residual activity at 10 uM using [33P-ATP] by radiometric filter binding assay
[7] = target: Mitogen-activated protein kinase 12 (Homo sapiens) (UniProt P53778); experiment: Inhibition of p38-gamma MAPK assessed as residual activity at 10 uM using [33P-ATP] by radiometric filter binding assay
[8] = target: Angiopoietin-1 receptor (Homo sapiens) (UniProt Q02763); experiment: Inhibition of TIE2 assessed as residual activity at 10 uM using [33P-ATP] by radiometric filter binding assay
[9] = target: SRSF protein kinase 1 (Homo sapiens) (UniProt Q96SB4); experiment: Inhibition of SRPK1 assessed as residual activity at 10 uM using [33P-ATP] by radiometric filter binding assay
[10] = target: Dual specificity protein kinase CLK2 (Homo sapiens) (UniProt P49760); experiment: Inhibition of CLK2 assessed as residual activity at 10 uM using [33P-ATP] by radiometric filter binding assay
[11] = target: Serine/threonine-protein kinase 3 (Homo sapiens) (UniProt Q13188); experiment: Inhibition of MST2 assessed as residual activity at 10 uM using [33P-ATP] by radiometric filter binding assay
Sequence of Serine/threonine-protein kinase 3 (Homo sapiens) (Q13188 whole entry): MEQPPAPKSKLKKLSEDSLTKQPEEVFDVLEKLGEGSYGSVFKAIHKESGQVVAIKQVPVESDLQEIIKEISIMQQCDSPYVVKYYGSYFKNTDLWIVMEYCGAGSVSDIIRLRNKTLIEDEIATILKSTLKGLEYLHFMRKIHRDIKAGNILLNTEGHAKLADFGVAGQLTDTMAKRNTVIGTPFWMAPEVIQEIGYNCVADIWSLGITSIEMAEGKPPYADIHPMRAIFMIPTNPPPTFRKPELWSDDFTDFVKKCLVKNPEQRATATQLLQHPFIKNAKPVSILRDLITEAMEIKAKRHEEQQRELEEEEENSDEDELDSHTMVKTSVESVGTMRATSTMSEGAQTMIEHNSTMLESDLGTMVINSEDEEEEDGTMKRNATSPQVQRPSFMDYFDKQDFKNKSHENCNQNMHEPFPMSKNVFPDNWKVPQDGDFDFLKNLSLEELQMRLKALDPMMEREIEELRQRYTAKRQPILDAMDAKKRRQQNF

[12] = target: Mitogen-activated protein kinase kinase kinase 1 (Homo sapiens) (UniProt Q13233); experiment: Inhibition of MEKK1 assessed as residual activity at 10 uM using [33P-ATP] by radiometric filter binding assay
[13] = target: Tyrosine-protein kinase JAK2 (Homo sapiens) (UniProt O60674); experiment: Inhibition of JAK2 assessed as residual activity at 10 uM using [33P-ATP] by radiometric filter binding assay
[14] = Inhibition of VEGFR assessed as residual activity at 10 uM using [33P-ATP] by radiometric filter binding assay
[15] = target: Serine/threonine-protein kinase Sgk1 (Homo sapiens) (UniProt O00141); experiment: Inhibition of SGK1 assessed as residual activity at 10 uM using [33P-ATP] by radiometric filter binding assay
[16] = target: Serine/threonine-protein kinase Chk2 (Homo sapiens) (UniProt O96017); experiment: Inhibition of CHK2 assessed as residual activity at 10 uM using [33P-ATP] by radiometric filter binding assay
[17] = target: Dual specificity mitogen-activated protein kinase kinase 2 (Homo sapiens) (UniProt P36507); experiment: Inhibition of MKK2 assessed as residual activity at 10 uM using [33P-ATP] by radiometric filter binding assay
[18] = target: Serine/threonine-protein kinase N2 (Homo sapiens) (UniProt Q16513); experiment: Inhibition of PRK2 assessed as residual activity at 10 uM using [33P-ATP] by radiometric filter binding assay
[19] = target: Calcium/calmodulin-dependent protein kinase kinase 2 (Homo sapiens) (UniProt Q96RR4); experiment: Inhibition of CAMKKbeta assessed as residual activity at 10 uM using [33P-ATP] by radiometric filter binding assay
[20] = target: Serine/threonine-protein kinase MARK1 (Homo sapiens) (UniProt Q9P0L2); experiment: Inhibition of MARK1 assessed as residual activity at 10 uM using [33P-ATP] by radiometric filter binding assay
Sequence of Serine/threonine-protein kinase MARK1 (Homo sapiens) (Q9P0L2 whole entry, looked up): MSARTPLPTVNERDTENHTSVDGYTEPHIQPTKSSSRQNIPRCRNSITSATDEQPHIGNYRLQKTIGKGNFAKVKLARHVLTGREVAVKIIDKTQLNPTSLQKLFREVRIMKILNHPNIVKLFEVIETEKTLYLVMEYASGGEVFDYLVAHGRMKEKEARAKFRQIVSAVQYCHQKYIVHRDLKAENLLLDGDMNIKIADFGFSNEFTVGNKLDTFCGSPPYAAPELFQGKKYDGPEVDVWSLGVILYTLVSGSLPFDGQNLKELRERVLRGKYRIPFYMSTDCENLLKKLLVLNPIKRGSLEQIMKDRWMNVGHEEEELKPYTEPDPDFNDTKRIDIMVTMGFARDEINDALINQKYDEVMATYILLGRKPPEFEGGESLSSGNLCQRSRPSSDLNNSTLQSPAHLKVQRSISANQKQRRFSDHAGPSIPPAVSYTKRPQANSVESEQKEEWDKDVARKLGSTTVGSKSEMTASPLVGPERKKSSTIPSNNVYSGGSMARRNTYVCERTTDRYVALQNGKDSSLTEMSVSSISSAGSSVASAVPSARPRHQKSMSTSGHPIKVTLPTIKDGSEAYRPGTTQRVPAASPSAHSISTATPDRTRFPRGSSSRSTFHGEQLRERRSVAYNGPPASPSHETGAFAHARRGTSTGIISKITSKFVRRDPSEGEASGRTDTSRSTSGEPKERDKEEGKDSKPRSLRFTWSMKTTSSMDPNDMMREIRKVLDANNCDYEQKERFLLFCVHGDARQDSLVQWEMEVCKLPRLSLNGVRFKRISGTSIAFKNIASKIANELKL

[21] = target: Mitogen-activated protein kinase 15 (Homo sapiens) (UniProt Q8TD08); experiment: Inhibition of ERK8 assessed as residual activity at 10 uM using [33P-ATP] by radiometric filter binding assay
[22] = target: Serine/threonine-protein kinase PAK 2 (Homo sapiens) (UniProt Q13177); experiment: Inhibition of PAK2 assessed as residual activity at 10 uM using [33P-ATP] by radiometric filter binding assay
Sequence of Serine/threonine-protein kinase PAK 2 (Homo sapiens) (Q13177 whole entry): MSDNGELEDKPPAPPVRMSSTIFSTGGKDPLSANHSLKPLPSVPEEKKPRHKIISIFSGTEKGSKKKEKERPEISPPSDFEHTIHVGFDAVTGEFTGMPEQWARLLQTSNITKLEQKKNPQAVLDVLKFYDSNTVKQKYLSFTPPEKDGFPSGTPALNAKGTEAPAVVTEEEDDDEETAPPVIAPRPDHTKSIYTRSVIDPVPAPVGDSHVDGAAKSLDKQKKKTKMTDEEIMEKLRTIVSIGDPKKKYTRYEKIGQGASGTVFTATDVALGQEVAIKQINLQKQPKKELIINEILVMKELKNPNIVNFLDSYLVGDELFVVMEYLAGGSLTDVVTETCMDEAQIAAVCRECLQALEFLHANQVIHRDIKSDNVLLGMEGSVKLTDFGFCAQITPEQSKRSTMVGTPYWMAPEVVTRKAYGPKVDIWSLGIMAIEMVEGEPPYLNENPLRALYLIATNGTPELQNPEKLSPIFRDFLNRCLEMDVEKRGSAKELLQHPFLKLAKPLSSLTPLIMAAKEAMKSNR

[23] = target: Serine/threonine-protein kinase 16 (Homo sapiens) (UniProt O75716); experiment: Inhibition of MPSK1 assessed as residual activity at 10 uM using [33P-ATP] by radiometric filter binding assay
Sequence of Serine/threonine-protein kinase 16 (Homo sapiens) (O75716 whole entry, looked up): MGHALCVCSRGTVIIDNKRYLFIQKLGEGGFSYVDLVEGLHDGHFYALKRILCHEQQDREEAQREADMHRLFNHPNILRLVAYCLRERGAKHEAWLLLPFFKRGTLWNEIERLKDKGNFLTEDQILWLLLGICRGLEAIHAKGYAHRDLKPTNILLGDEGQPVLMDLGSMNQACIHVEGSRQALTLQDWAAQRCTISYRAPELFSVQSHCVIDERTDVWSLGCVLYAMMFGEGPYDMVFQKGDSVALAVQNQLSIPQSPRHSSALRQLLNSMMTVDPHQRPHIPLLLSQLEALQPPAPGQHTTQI

[24] = target: MAP kinase-interacting serine/threonine-protein kinase 2 (Homo sapiens) (UniProt Q9HBH9); experiment: Inhibition of MNK2 assessed as residual activity at 10 uM using [33P-ATP] by radiometric filter binding assay
Sequence of MAP kinase-interacting serine/threonine-protein kinase 2 (Homo sapiens) (Q9HBH9 whole entry, looked up): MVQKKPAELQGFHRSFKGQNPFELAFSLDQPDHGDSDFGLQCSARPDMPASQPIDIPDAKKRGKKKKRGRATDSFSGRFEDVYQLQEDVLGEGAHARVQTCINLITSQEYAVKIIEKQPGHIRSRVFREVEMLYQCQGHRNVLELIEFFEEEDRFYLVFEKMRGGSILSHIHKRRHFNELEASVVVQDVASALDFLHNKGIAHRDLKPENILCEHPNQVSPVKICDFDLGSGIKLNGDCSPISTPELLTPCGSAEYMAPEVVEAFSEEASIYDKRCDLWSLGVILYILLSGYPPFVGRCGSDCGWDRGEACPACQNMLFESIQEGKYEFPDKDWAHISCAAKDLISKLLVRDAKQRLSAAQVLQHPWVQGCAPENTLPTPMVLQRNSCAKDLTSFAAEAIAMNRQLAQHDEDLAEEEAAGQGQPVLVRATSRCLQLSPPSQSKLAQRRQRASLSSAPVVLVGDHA

[25] = target: Protein kinase C alpha type (Homo sapiens) (UniProt P17252); experiment: Inhibition of PKCalpha assessed as residual activity at 10 uM using [33P-ATP] by radiometric filter binding assay

Sequence of Insulin receptor-related protein (Homo sapiens) (P14616 27-742 limits assumed): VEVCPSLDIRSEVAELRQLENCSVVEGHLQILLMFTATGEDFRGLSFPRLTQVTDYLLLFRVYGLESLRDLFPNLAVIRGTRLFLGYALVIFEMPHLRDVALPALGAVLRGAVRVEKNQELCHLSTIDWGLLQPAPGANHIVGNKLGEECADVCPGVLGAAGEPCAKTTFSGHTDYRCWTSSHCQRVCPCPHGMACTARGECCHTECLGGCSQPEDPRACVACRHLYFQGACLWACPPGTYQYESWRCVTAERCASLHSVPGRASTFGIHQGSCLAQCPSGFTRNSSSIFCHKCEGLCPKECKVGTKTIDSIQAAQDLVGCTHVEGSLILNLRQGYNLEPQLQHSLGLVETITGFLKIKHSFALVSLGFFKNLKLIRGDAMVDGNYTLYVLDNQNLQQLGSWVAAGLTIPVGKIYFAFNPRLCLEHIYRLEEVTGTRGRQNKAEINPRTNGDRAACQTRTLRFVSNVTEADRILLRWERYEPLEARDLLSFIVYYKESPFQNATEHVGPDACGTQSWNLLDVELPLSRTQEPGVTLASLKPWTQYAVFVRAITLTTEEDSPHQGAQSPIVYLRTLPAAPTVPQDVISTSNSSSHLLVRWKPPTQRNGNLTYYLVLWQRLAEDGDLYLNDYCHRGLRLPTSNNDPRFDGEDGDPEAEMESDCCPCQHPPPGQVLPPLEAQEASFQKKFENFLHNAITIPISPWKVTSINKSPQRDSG
Sequence of Insulin receptor-related protein (Homo sapiens) (P14616 747-1297 limits assumed): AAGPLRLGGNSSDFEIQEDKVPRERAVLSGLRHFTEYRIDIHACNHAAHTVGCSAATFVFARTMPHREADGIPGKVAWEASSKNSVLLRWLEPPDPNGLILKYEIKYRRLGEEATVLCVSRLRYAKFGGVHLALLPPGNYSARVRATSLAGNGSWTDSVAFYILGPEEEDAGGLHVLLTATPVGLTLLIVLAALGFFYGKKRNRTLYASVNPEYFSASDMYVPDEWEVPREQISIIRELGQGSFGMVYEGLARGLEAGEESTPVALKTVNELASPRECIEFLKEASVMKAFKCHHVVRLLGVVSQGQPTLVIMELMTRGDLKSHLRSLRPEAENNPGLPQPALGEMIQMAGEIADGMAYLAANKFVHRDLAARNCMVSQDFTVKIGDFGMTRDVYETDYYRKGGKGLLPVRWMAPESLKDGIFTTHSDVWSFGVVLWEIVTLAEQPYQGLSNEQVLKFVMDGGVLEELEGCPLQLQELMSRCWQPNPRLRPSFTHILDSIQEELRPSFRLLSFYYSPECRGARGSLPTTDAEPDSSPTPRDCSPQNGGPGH

`Cc1ccc(F)cc1-c1nc2[nH]nc(N)c2c2c1CCCC2` gave an Activity [1] of 77%, an Activity [2] of 79% and an Activity [3] of 86%. It also gave an Activity [4] of 88%, an Activity [5] of 51% and an Activity [6] of 60%. The Activity [7] was 91%, the Activity [8] was 65% and the Activity [9] was 89%. The Activity [10] was 45%, the Activity [11] was 66% and the Activity [12] was 115%. The Activity [13] was 74%, the Activity [14] was 76% and the Activity [15] was 85%. The Activity [16] was 113%, the Activity [17] was 31% and the Activity [18] was 89%. For the same compound, the Activity [19] was 89%, the Activity [20] was 86% and the Activity [21] was 46%. For the same compound, the Activity [22] was 79%, the Activity [23] was 71% and the Activity [24] was 93%. It also gave an Activity [25] of 112%.
